In ChEMBL document CHEMBL1123446, “Amino-substituted p-benzoquinones” (1986):

How the values were obtained:
Homo sapiens = species: Homo sapiens; experiment: In vitro significant inhibitory activity against human colon […]; format: functional; conditions: read-out: ID50 (the source's name)
L1210 = experiment: In vitro significant inhibitory activity against L1210 leukemia cell lines; format: functional; conditions: Mus musculus, read-out: ID50 (the source's name)

Row | Compound | IC50 (Homo sapiens) [nM] | IC50 (L1210) [nM]
1 | CN(C)Cc1ccc(NC2=C(Br)C(=O)C(Nc3ccc(CN(C)C)cc3)=C(Br)C2=O)cc1 | 140 | 
2 | CN(C)Cc1ccc(NC2=C(Cl)C(=O)C(Nc3ccc(CN(C)C)cc3)=C(Cl)C2=O)cc1 | 100 | 37
3 | CO[C@H](C(=O)[C@@H](O)[C@@H](C)O)[C@@H]1Cc2cc3cc(O[C@H]4C[C@@H](O[C@@H]5C[C@@H](O)[C@H](O)[C@@H](C)O5)[C@H](O)[C@@H](C)O4)c(C)c(O)c3c(O)c2C(=O)[C@H]1O[C@H]1C[C@@H](O[C@@H]2C[C@@H](O)[C@@H](O[C@@H]3C[C@](C)(O)[C@H](O)[C@@H](C)O3)[C@@H](C)O2)[C@H](O)[C@@H](C)O1 [PLICAMYCIN] | 80 | 
